In ChEMBL document CHEMBL1201862, “PubChem BioAssay data set” (2004):
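Where inhibition never reached the appropriate level, the endpoint shown equals the highest concentration tested. Otherwise, values were interpolated linearly from a five-concentration, 48-hour dose response in 96-well plates. At the GI50, growth is halved.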 Activity calls are given as the source filed them. Rule as the data show it: active = GI50 up to about 1.1 µM and inactive = higher.

Assays:
Test in all cases: NCI-60 cell line screen, 48 h
786-0 = system: 786-0
A498 = system: A498
A549 = system: A549
ACHN = system: ACHN
CAKI-1 = system: CAKI-1
CCRF-CEM = system: CCRF-CEM
COLO 205 = system: COLO 205
DLD-1 = system: DLD-1
DMS-114 = system: DMS-114
EKVX = system: EKVX
HCC 2998 = system: HCC 2998
HL-60 = system: HL-60
HOP-62 = system: HOP-62
HOP-92 = system: HOP-92
HT-29 = system: HT-29
IGROV-1 = system: IGROV-1
K562 = system: K562
KM-20L2 = system: KM-20L2
KM12 = system: KM12
LOX IMVI = system: LOX IMVI
LXFL 529 = system: LXFL 529
M14 = system: M14
M19-MEL = system: M19-MEL
MOLT-4 = system: MOLT-4
Malme-3M = system: Malme-3M
NCI-H226 = system: NCI-H226
NCI-H23 = system: NCI-H23
NCI-H460 = system: NCI-H460
NCI-H522 = system: NCI-H522
OVCAR-3 = system: OVCAR-3
OVCAR-4 = system: OVCAR-4
OVCAR-5 = system: OVCAR-5
OVCAR-8 = system: OVCAR-8
RPMI-8226 = system: RPMI-8226
RXF 393 = system: RXF 393
RXF 631 = system: RXF 631
SF-268 = system: SF-268
SF-295 = system: SF-295
SF-539 = system: SF-539
SK-MEL-28 = system: SK-MEL-28
SK-MEL-2 = system: SK-MEL-2
SK-MEL-5 = system: SK-MEL-5
SN12C = system: SN12C
SNB-19 = system: SNB-19
SNB-75 = system: SNB-75
SNB-78 = system: SNB-78
SW-620 = system: SW-620
TK-10 = system: TK-10
U-251 = system: U-251
UACC-257 = system: UACC-257
UO-31 = system: UO-31
XF498 = system: XF498

Measured: GI50

CC1=C(C(=O)Nc2cc(=O)n(C)c(=O)n2C)C(c2ccco2)C(C(=O)Nc2cc(=O)n(C)c(=O)n2C)=C(C)N1
inactive: 786-0 > 100 µM | A498 > 100 µM | A549 > 100 µM | ACHN > 100 µM | CAKI-1 > 100 µM | CCRF-CEM > 100 µM | COLO 205 > 100 µM | DLD-1 > 100 µM | DMS-114 > 100 µM | EKVX > 100 µM | HCC 2998 > 100 µM | HL-60 > 100 µM | HOP-62 41.5 µM | HOP-92 48.5 µM | HT-29 > 100 µM | IGROV-1 > 100 µM | K562 > 100 µM | KM-20L2 > 100 µM | KM12 > 100 µM | LOX IMVI > 100 µM | LXFL 529 > 100 µM | M14 > 100 µM | M19-MEL > 100 µM | MOLT-4 > 100 µM | Malme-3M > 100 µM | NCI-H226 > 100 µM | NCI-H23 > 100 µM | NCI-H460 > 100 µM | NCI-H522 > 100 µM | OVCAR-3 > 100 µM | OVCAR-4 > 100 µM | OVCAR-5 > 100 µM | OVCAR-8 > 100 µM | RPMI-8226 > 100 µM | RXF 393 > 100 µM | RXF 631 > 100 µM | SF-268 > 100 µM | SF-295 > 100 µM | SF-539 > 100 µM | SK-MEL-28 > 100 µM | SK-MEL-2 > 100 µM | SK-MEL-5 > 100 µM | SN12C > 100 µM | SNB-19 > 100 µM | SNB-75 44.8 µM | SNB-78 > 100 µM | SW-620 > 100 µM | TK-10 > 100 µM | U-251 > 100 µM | UACC-257 > 100 µM | UO-31 > 100 µM | XF498 > 100 µM
